According to ChEMBL document CHEMBL1821714, “Discovery, synthesis and SAR of azinyl- and azolylbenzamides antagonists of the P2X₇ receptor” (Bioorg Med Chem Lett, 2011):

Tests used:
P2X purinoceptor 7 [1] = target: T1, P2X purinoceptor 7 (Homo sapiens, UniProt Q99572); assay: Antagonist activity at P2X7R expressed in LPS-activated human monocytes assessed as inhibition of ATP-induced IL1-beta release in presence of low serum concentration; assay type: functional, cell-based
T1 sequence (Q99572 whole entry): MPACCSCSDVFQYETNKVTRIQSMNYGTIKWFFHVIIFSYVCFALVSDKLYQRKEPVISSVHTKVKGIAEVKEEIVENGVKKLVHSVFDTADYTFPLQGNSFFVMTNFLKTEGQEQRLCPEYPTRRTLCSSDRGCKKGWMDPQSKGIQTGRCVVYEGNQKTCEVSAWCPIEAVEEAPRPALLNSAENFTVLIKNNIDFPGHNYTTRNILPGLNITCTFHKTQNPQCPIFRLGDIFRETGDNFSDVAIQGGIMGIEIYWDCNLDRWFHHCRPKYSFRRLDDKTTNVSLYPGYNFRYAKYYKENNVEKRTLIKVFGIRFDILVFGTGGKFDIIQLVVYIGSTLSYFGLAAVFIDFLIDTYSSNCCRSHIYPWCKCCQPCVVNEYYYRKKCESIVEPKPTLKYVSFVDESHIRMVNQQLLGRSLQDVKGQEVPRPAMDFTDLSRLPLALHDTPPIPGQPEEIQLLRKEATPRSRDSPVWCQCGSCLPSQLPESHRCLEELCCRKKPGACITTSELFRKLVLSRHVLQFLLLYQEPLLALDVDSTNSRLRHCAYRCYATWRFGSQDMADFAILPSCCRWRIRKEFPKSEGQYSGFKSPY

[2] = Distribution coefficient, log D of the compound; assay type: physicochemical; conditions: octanol/water
P2X purinoceptor 7 [3] = target: T1, P2X purinoceptor 7; assay: Antagonist activity at P2X7R expressed in HEK293 cells assessed as inhibition of ATP-induced YO-PRO-1 uptake; assay type: functional, cell-based
P2X purinoceptor 7 [4] = target: T1, P2X purinoceptor 7; assay: Antagonist activity at P2X7R expressed in LPS-stimulated human whole blood assessed as inhibition of ATP-induced IL1-beta release; assay type: functional, tissue-based
[5] = Lipophilicity, log P of the compound; assay type: physicochemical; conditions: octanol/water
MDCK [6] = assay: Ratio of permeability from basolateral to apical over apical to basolateral side in dog MDCK cells expressing MDR1; assay type: ADME, cell-based, Canis lupus familiaris
[7] = Permeability from apical to basolateral side of human Caco2 cells; assay type: ADME, cell-based; conditions: Caco-2, read-out: permeability
MDCK [8] = assay: Permeability from apical to basolateral side of dog MDCK cells expressing MDR1; assay type: ADME, cell-based, Canis lupus familiaris
[9] = Half life in human liver microsomes
MDCK [10] = assay: Permeability from basolateral to apical side of dog MDCK cells expressing MDR1; assay type: ADME, cell-based, Canis lupus familiaris
[11] = Half life in iv dosed rat; conditions: in vivo
[12] = Volume of distribution at steady state in iv dosed rat; conditions: in vivo
[13] = Oral bioavailability in rat; conditions: in vivo
[14] = target: T2, P2X purinoceptor 7 (Homo sapiens) (UniProt Q99572); assay: Antagonist activity at P2X7R expressed in LPS-activated human monocytes assessed as inhibition of ATP-induced IL1-beta release at 1 uM in presence of low serum concentration; assay type: functional, cell-based
T2 sequence (whole entry): T1 sequence (Q99572 whole entry)

## Cc1cc(-c2ccc(Cl)c(C(=O)NCC3(O)CCCCCC3)c2)nn1C[C@H](O)CN.Cl
P2X purinoceptor 7 [1]
  IC50: 0.007 µM
[2]
  logD: 1.6
P2X purinoceptor 7 [3]
  IC50: 0.003 µM
P2X purinoceptor 7 [4]
  IC50: 0.01 µM
[5]
  logP: 2.6
MDCK [6]
  Ratio: 10.5
[7]
  Papp A→B: 10.5 ×10⁻⁶ cm/s
MDCK [8]
  permeability: 0.26 ×10⁻⁶ cm/s
[9]; liver microsomes
  half-life: > 2 h
MDCK [10]
  permeability: 2.2 ×10⁻⁶ cm/s

## NC(=O)c1ccc(-c2ccc(Cl)c(C(=O)NCCc3ccccc3Cl)c2)nc1
P2X purinoceptor 7 [1]
  IC50: 0.72 µM

## Cc1cc(-c2ccc(Cl)c(C(=O)NCC3(O)CCCCCC3)c2)nn1C[C@@H](O)CN.Cl
[11]
  half-life: 8.36 h
P2X purinoceptor 7 [1]
  IC50: 0.002 µM
[2]
  logD: 1.6
P2X purinoceptor 7 [3]
  IC50: 0.0005 µM
[12]
  Vd: 11.7 L/kg
P2X purinoceptor 7 [4]
  IC50: 0.003 µM
[5]
  logP: 2.6
MDCK [6]
  Ratio: 11.5
[7]
  Papp A→B: 2.98 ×10⁻⁶ cm/s
[13]
  bioavailability: 9%
MDCK [8]
  permeability: 0.26 ×10⁻⁶ cm/s
[9]; liver microsomes
  half-life: > 2 h
MDCK [10]
  permeability: 2.39 ×10⁻⁶ cm/s

## Cn1ccc(-c2ccc(Cl)c(C(=O)NCC3(O)CCCCCC3)c2)n1
P2X purinoceptor 7 [1]
  IC50: 0.238 µM
P2X purinoceptor 7 [4]
  IC50: 0.44 µM
[9]; liver microsomes
  half-life: 0.0617 h

## O=C(NCC1(O)CCCCCC1)c1cc(-c2cc[nH]n2)ccc1Cl
P2X purinoceptor 7 [3]
  IC50: 0.012 µM
P2X purinoceptor 7 [4]
  IC50: 0.61 µM
[9]; liver microsomes
  half-life: 0.2 h

## N#Cc1ccc(-c2ccc(Cl)c(C(=O)NCCc3ccccc3Cl)c2)nc1
[14]
  inhibition: 0%

## O=C(NCCc1ccccc1Cl)c1cc(-c2cccnc2)ccc1Cl
P2X purinoceptor 7 [1]
  IC50: 4.8 µM

## O=C(NCCc1ccccc1Cl)c1cc(-c2ccc(Cl)cn2)ccc1Cl
P2X purinoceptor 7 [1]
  IC50: 0.46 µM

## O=C(NCCc1ccccc1Cl)c1cc(-c2ccncc2)ccc1Cl
P2X purinoceptor 7 [1]
  IC50: 5.2 µM

## Cc1ccc(-c2ccc(Cl)c(C(=O)NCCc3ccccc3Cl)c2)nc1
P2X purinoceptor 7 [1]
  IC50: 0.11 µM

## Cc1cccc(-c2ccc(Cl)c(C(=O)NCCc3ccccc3Cl)c2)n1
[14]
  inhibition: 0%

## O=C(NCCc1ccccc1Cl)c1cc(-c2n[nH]c(=O)[nH]c2=O)ccc1Cl
P2X purinoceptor 7 [1]
  IC50: 1.05 µM

## Cn1nccc1-c1ccc(Cl)c(C(=O)NCC2(O)CCCCCC2)c1
P2X purinoceptor 7 [1]
  IC50: > 1 µM
P2X purinoceptor 7 [3]
  IC50: 0.266 µM

## COC[C@H](O)Cn1c(=O)cnn(-c2ccc(Cl)c(C(=O)NCC3(O)CCCCCC3)c2)c1=O [CE-224535]
P2X purinoceptor 7 [1]
  IC50: 0.0013 µM

## Cc1nc(-c2ccc(Cl)c(C(=O)NCC3(O)CCCCCC3)c2)cs1
P2X purinoceptor 7 [3]
  IC50: 0.006 µM

## O=C(NCCc1ccccc1Cl)c1cc(-c2ccc(C(F)(F)F)cn2)ccc1Cl
P2X purinoceptor 7 [1]
  IC50: 4.6 µM

## O=C(NCCc1ccccc1Cl)c1cc(-c2ccccn2)ccc1Cl
P2X purinoceptor 7 [1]
  IC50: 1.6 µM

## COc1ccc(-c2ccc(Cl)c(C(=O)NCCc3ccccc3Cl)c2)nn1
P2X purinoceptor 7 [1]
  IC50: 0.49 µM

## O=C(NCC1(O)CCCCCC1)c1cc(-c2c[nH]cn2)ccc1Cl
P2X purinoceptor 7 [1]
  IC50: 0.51 µM
[9]; liver microsomes
  half-life: 1.42 h

## O=C(NCC1(O)CCCCCC1)c1cc(-c2cnoc2)ccc1Cl
P2X purinoceptor 7 [1]
  IC50: 0.24 µM
[9]; microsomes
  half-life: 0.372 h

## Cc1cccnc1-c1ccc(Cl)c(C(=O)NCCc2ccccc2Cl)c1
[14]
  inhibition: 0%

## CC(=O)c1ccc(-c2ccc(Cl)c(C(=O)NCCc3ccccc3Cl)c2)nc1
[14]
  inhibition: 0%

## O=C(NCC1(O)CCCCCC1)c1cc(-c2ccc(=O)[nH]n2)ccc1Cl
P2X purinoceptor 7 [3]
  IC50: 0.18 µM

## Cc1ccc(-c2ccc(Cl)c(C(=O)NCCc3ccccc3Cl)c2)nn1
P2X purinoceptor 7 [1]
  IC50: 0.25 µM

## CC(O)c1ccc(-c2ccc(Cl)c(C(=O)NCCc3ccccc3Cl)c2)nc1 (stereo not drawn)
P2X purinoceptor 7 [1]
  IC50: 0.668 µM

## Cc1ccnc(-c2ccc(Cl)c(C(=O)NCCc3ccccc3Cl)c2)c1
[14]
  inhibition: 0%

## COc1ccc(-c2ccc(Cl)c(C(=O)NCC3(O)CCCCCC3)c2)nn1
P2X purinoceptor 7 [3]
  IC50: 0.028 µM
P2X purinoceptor 7 [4]
  IC50: 0.51 µM
[9]; liver microsomes
  half-life: 1.28 h

## CCCCC(CC)CNC(=O)c1cc(-n2ncc(=O)[nH]c2=O)ccc1Cl (stereo not drawn)
P2X purinoceptor 7 [1]
  IC50: 0.82 µM
